Reference: ChEMBL document CHEMBL5291721, “A preclinical secondary pharmacology resource illuminates target-adverse drug reaction associations of marketed drugs” (Nat Commun, 2023)

Key:
Adenosine receptor A1 = molecular target: T1, Adenosine receptor A1 (Homo sapiens, UniProt P30542)
T1 sequence (P30542 whole entry): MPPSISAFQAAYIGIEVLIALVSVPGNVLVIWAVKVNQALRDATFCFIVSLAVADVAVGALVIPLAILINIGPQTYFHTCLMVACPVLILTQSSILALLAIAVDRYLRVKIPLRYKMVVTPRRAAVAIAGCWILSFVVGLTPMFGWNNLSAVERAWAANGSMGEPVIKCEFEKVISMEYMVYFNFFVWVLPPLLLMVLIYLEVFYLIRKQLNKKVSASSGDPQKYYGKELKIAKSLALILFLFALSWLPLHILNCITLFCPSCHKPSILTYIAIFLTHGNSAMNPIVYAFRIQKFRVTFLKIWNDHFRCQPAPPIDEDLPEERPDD

Adenosine receptor A3 = molecular target: T2, Adenosine receptor A3 (Homo sapiens, UniProt P0DMS8)
T2 sequence (P0DMS8 whole entry): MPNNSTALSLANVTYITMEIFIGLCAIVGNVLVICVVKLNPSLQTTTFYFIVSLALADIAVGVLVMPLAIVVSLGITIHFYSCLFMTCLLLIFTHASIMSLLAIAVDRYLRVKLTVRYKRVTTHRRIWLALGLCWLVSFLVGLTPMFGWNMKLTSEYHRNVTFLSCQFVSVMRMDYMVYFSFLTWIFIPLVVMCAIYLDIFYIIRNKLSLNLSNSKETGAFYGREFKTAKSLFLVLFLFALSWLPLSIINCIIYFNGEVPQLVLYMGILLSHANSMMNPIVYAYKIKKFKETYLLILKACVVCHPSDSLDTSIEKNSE

[1] = molecular target: T3, Alpha-2A adrenergic receptor (Homo sapiens, UniProt P08913); assay type: functional, cell-based
T3 sequence (P08913 whole entry): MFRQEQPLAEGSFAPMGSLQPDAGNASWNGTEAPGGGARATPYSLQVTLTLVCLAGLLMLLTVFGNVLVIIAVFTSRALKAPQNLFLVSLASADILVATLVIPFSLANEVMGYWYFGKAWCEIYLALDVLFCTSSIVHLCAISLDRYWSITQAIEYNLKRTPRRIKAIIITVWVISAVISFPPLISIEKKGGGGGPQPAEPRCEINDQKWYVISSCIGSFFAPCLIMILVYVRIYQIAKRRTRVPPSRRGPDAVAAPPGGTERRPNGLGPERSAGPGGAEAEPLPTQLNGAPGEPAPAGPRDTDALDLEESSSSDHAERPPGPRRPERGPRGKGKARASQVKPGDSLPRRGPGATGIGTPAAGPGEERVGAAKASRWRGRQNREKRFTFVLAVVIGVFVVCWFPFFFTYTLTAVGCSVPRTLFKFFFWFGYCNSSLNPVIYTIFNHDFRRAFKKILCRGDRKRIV

Vasopressin V2 receptor = Vasopressin V2 receptor (Homo sapiens, UniProt P30518)
Vasopressin V2 receptor, sequence (P30518 whole entry): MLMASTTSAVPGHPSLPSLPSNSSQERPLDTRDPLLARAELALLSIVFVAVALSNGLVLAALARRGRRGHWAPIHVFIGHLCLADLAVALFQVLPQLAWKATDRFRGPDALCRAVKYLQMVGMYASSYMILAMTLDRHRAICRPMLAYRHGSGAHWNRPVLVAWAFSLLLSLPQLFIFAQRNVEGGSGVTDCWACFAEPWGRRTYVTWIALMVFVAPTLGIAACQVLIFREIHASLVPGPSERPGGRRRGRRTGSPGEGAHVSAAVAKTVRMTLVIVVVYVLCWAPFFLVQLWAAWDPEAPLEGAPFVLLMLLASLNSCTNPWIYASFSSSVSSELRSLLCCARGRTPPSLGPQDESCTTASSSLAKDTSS

[2] = molecular target: Voltage-dependent L-type calcium channel subunit alpha-1C (Rattus norvegicus, UniProt P22002); assay type: functional
Voltage-dependent L-type calcium channel subunit alpha-1C, sequence (P22002 whole entry): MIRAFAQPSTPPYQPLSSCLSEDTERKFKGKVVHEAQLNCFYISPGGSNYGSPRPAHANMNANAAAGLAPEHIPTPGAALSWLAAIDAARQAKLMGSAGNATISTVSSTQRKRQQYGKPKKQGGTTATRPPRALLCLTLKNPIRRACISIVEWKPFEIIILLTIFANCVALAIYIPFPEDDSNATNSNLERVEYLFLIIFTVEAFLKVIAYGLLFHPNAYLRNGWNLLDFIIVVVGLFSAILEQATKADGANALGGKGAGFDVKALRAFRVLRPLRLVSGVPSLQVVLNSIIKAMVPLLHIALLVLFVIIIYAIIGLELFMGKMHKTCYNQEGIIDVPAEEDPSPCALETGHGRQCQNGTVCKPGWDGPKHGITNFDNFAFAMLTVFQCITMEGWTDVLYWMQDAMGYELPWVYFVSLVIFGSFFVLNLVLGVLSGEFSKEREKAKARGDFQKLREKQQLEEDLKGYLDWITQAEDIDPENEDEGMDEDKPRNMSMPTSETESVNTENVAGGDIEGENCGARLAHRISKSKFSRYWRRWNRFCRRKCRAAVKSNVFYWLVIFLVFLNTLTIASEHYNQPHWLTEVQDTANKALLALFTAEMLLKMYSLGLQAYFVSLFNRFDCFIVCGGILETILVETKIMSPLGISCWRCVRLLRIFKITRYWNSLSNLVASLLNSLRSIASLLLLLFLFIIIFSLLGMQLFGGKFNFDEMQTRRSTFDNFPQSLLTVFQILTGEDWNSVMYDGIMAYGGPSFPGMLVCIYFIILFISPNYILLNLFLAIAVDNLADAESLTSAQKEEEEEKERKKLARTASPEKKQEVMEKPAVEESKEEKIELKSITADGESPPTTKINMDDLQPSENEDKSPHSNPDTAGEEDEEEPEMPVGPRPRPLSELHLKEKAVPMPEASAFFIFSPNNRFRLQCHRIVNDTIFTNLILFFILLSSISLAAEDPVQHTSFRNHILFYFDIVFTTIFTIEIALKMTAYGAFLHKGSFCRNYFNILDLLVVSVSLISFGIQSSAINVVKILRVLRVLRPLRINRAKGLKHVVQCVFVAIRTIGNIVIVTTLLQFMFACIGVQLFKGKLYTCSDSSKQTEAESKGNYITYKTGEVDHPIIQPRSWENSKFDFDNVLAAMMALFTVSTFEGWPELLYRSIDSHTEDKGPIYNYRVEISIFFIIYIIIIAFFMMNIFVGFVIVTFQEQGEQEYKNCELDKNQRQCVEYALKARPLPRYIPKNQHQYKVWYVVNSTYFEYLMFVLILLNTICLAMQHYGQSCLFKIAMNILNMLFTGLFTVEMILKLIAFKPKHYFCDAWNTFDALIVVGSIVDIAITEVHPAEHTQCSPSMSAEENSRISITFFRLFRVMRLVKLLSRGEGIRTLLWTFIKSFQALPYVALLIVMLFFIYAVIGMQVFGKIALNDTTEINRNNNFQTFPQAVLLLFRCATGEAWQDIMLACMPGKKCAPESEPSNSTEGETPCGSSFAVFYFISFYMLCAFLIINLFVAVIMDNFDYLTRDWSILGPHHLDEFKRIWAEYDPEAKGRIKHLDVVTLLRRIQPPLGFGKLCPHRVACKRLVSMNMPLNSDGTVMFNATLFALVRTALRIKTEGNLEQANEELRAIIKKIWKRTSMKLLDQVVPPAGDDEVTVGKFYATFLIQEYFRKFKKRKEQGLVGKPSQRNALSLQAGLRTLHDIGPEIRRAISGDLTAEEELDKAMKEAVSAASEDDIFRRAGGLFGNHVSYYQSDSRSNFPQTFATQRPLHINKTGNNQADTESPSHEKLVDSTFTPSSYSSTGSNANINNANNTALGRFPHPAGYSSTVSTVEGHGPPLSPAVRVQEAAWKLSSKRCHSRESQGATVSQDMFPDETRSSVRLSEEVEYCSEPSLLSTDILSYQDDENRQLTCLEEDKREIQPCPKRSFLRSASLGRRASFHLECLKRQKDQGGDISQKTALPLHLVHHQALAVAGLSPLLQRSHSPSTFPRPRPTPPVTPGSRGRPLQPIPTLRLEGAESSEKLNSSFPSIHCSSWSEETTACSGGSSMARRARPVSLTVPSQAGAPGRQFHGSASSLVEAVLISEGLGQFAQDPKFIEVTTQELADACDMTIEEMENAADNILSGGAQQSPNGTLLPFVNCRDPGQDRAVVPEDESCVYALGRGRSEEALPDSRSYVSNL

[3] = molecular target: T4, 5-hydroxytryptamine receptor 1A (Homo sapiens, UniProt P08908); assay type: functional, cell-based
T4 sequence (P08908 whole entry): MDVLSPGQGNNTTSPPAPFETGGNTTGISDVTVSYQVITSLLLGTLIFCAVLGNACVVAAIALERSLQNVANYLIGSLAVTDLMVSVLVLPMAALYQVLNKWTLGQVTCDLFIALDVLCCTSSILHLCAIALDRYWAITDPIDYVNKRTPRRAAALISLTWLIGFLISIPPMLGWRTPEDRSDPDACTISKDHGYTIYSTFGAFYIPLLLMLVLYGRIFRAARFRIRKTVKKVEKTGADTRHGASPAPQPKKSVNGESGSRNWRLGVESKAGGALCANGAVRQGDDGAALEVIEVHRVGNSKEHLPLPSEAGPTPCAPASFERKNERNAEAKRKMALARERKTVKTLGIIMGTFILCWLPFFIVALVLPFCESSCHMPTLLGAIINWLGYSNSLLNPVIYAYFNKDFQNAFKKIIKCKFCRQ

Melanocortin receptor 3 = Melanocortin receptor 3 (Homo sapiens, UniProt P41968)
Melanocortin receptor 3, sequence (P41968 whole entry): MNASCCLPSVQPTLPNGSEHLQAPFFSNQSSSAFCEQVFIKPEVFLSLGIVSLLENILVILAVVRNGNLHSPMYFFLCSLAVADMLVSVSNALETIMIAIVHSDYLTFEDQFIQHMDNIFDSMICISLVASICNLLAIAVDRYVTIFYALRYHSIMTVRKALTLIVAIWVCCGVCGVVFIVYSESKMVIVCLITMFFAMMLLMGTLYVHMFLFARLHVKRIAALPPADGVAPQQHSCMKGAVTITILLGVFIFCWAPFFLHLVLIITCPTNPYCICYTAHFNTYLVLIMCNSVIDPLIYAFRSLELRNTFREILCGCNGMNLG

[4] = molecular target: 3',5'-cyclic-AMP phosphodiesterase 4D (Homo sapiens, UniProt Q08499); assay type: functional
3',5'-cyclic-AMP phosphodiesterase 4D, sequence (Q08499 whole entry): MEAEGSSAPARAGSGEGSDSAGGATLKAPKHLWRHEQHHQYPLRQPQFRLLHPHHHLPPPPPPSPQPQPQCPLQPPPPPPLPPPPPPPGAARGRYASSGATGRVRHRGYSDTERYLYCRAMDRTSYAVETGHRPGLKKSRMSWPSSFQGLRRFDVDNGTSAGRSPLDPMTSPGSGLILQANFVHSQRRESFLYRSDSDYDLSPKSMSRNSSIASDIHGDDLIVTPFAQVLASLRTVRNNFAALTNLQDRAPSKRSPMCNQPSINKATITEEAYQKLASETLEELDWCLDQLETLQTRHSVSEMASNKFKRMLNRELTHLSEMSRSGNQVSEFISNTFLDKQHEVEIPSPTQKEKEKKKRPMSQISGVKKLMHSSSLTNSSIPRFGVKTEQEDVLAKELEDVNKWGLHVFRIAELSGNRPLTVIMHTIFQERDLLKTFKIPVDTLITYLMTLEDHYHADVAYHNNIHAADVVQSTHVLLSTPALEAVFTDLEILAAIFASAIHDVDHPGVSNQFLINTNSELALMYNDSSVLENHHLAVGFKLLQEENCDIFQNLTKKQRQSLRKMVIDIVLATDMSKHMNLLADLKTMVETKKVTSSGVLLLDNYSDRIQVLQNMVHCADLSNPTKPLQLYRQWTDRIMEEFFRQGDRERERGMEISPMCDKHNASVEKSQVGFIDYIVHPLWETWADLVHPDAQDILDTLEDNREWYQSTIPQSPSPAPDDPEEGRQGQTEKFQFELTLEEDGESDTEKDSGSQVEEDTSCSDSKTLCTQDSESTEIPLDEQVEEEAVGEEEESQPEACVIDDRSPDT

Progesterone receptor = molecular target: T5, Progesterone receptor (Homo sapiens, UniProt P06401); assay type: functional
T5 sequence (P06401 whole entry): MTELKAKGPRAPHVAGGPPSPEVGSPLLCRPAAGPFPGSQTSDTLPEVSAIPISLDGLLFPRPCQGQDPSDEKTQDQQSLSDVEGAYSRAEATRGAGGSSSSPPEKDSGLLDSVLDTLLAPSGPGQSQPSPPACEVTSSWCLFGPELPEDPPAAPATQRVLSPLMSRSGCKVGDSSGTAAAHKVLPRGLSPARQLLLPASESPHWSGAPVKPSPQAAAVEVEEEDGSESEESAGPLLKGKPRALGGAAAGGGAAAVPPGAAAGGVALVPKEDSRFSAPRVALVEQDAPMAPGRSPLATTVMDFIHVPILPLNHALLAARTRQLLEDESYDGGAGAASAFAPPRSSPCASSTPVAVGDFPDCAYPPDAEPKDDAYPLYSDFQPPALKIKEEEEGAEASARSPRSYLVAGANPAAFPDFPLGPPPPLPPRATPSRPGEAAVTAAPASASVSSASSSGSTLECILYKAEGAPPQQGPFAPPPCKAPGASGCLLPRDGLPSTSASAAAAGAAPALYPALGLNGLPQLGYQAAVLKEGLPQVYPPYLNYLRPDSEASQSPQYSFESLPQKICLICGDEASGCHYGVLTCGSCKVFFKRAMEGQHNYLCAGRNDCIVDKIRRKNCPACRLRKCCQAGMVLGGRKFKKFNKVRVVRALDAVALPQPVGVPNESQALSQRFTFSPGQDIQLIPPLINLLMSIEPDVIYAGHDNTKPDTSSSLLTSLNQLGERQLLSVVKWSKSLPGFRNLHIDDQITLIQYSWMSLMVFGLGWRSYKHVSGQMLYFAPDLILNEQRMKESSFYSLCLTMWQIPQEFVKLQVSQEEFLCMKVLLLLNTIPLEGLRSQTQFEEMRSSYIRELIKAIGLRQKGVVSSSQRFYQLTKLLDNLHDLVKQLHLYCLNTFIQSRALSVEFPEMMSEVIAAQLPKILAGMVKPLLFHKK

[5] = molecular target: Sodium-dependent dopamine transporter (Homo sapiens, UniProt Q01959)
Sodium-dependent dopamine transporter, sequence (Q01959 whole entry): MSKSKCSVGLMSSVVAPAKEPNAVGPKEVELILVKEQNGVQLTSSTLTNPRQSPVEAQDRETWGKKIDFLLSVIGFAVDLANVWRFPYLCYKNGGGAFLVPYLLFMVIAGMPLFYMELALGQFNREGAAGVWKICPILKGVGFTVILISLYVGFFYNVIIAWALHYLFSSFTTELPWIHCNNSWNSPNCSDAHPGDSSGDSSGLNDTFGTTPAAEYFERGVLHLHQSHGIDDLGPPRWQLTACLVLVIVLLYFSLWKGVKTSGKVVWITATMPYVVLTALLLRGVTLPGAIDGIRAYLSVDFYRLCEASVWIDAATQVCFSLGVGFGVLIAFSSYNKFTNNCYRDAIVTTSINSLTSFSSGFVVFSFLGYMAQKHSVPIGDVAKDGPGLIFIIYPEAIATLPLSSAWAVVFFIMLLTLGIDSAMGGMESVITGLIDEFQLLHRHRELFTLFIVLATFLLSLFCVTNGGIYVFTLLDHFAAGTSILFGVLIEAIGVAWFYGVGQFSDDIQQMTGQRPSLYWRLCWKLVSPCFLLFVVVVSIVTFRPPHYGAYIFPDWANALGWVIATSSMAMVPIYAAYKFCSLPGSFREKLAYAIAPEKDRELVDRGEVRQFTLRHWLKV

Cannabinoid receptor 1 = Cannabinoid receptor 1 (Homo sapiens, UniProt P21554); assay type: functional, cell-based
Cannabinoid receptor 1, sequence (P21554 whole entry): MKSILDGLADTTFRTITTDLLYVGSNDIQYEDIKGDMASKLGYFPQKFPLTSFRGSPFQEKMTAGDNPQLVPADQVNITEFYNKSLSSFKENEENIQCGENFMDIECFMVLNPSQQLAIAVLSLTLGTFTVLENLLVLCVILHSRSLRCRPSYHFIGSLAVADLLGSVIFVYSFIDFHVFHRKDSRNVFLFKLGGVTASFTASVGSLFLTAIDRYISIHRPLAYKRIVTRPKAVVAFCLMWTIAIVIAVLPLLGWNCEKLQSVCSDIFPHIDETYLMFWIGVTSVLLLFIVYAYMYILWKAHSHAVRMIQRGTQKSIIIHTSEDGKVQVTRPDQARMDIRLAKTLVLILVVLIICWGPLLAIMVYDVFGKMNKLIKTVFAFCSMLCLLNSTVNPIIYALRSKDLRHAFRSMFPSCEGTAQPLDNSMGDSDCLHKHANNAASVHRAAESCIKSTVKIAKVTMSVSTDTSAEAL
Also: assay procedure not described here.

Row | SMILES | AC50 (Adenosine receptor A1) | AC50 (Adenosine receptor A3) | AC50 [1] | AC50 (Vasopressin V2 receptor) | AC50 [2] | AC50 [3] | AC50 (Melanocortin receptor 3) | AC50 [4] | AC50 (Progesterone receptor) | AC50 [5] | AC50 (Cannabinoid receptor 1)
1 | COc1ccc(/C=C/C(=O)Nc2ccccc2C(=O)O)cc1OC | > 30 µM | > 30 µM | > 30 µM | > 30 µM | > 30 µM | > 30 µM | > 30 µM | 21 µM | > 30 µM | > 30 µM | 
2 | NCCCC(O)(P(=O)(O)O)P(=O)(O)O [ALENDRONIC ACID] | > 30 µM | > 30 µM | > 10 µM | > 30 µM | > 10 µM | > 10 µM | > 30 µM | > 30 µM |  |  | 
3 | NS(=O)(=O)c1cc2c(cc1C(F)(F)F)NC(Cc1ccccc1)NS2(=O)=O (configuration not stated) [BENDROFLUMETHIAZIDE] | > 10 µM | > 10 µM | > 10 µM | > 10 µM | > 10 µM | > 10 µM | > 10 µM | > 30 µM | > 10 µM | 3.2 µM | 
4 | CCCCCCNC(=O)n1cc(F)c(=O)[nH]c1=O [CARMOFUR] | > 30 µM | > 30 µM | > 30 µM | > 30 µM | > 30 µM | > 30 µM | > 30 µM | > 30 µM | > 30 µM | > 30 µM | 
5 | COc1cccc2c1C(=O)c1c(O)c3c(c(O)c1C2=O)C[C@@](O)(C(C)=O)C[C@@H]3O[C@H]1C[C@H](N)[C@H](O)[C@H](C)O1 [DAUNORUBICIN] | > 30 µM | 26.5 µM |  | > 10 µM | > 30 µM |  | 29 µM | 22 µM | 7.42 µM | 17.7 µM | 
6 | COC(=O)N[C@@H](C)CNc1nccc(-c2cn(C(C)C)nc2-c2cc(Cl)cc(NS(C)(=O)=O)c2F)n1 [ENCORAFENIB] | > 30 µM | > 30 µM | > 30 µM | > 30 µM | > 30 µM | > 30 µM | > 30 µM | 4.4 µM | > 30 µM | > 30 µM | 
7 | Nc1nc(F)nc2c1ncn2[C@@H]1O[C@H](COP(=O)(O)O)[C@@H](O)[C@@H]1O [FLUDARABINE PHOSPHATE] | > 30 µM | > 30 µM | > 30 µM | > 30 µM | > 30 µM | > 30 µM | > 30 µM | > 30 µM | > 30 µM | > 30 µM | 
8 | CC#CCn1c(N2CCC[C@@H](N)C2)nc2c1c(=O)n(Cc1nc(C)c3ccccc3n1)c(=O)n2C [LINAGLIPTIN] | > 30 µM | 26.2 µM | > 10 µM | > 30 µM | > 10 µM |  | > 30 µM | > 10 µM |  | > 30 µM | 
9 | CC(=O)O[C@H]1C[C@@H]2CC[C@@H]3[C@H](CC[C@@]4(C)[C@H]3C[C@H]([N+]3(C)CCCCC3)[C@@H]4OC(C)=O)[C@@]2(C)C[C@@H]1[N+]1(C)CCCCC1 [PANCURONIUM] | > 10 µM | > 10 µM | > 10 µM | > 10 µM | > 10 µM | > 10 µM | > 10 µM | > 30 µM | > 10 µM | > 10 µM | 
10 | CC1(C)C(C=C(Cl)Cl)C1C(=O)OCc1cccc(Oc2ccccc2)c1 (configuration not stated) [PERMETHRIN] | > 10 µM | > 10 µM | 9.7 µM | > 10 µM | > 10 µM | > 10 µM | > 10 µM | > 30 µM | > 30 µM | > 10 µM | 
11 | Cc1ccc(=O)n(-c2ccccc2)c1 [PIRFENIDONE] | > 30 µM | > 30 µM | > 30 µM | > 30 µM |  | > 30 µM | > 30 µM | > 30 µM | > 30 µM | > 30 µM | > 30 µM
12 | CCCNC(C)C(=O)Nc1ccccc1C (configuration not stated) [PRILOCAINE] | > 30 µM | > 30 µM | > 30 µM | > 30 µM |  | > 30 µM | > 30 µM | > 30 µM | > 30 µM | > 30 µM | > 30 µM
13 | Cc1ccc2c(-c3ccccc3)nc(=O)n(C(C)C)c2c1 [PROQUAZONE] | > 30 µM | 23 µM | 28 µM | > 30 µM |  | > 30 µM | > 30 µM | 0.81 µM | > 30 µM | > 30 µM | > 30 µM
14 | Cc1cc2nc3c(=O)[nH]c(=O)nc-3n(C[C@H](O)[C@H](O)[C@H](O)COP(=O)(O)O)c2cc1C [RIBOFLAVIN 5'-PHOSPHATE] | > 30 µM | > 30 µM |  | > 30 µM | 15 µM |  | > 30 µM | > 30 µM | > 30 µM | > 30 µM | 
15 | CN1CCN(c2c(F)cc3c(=O)c(C(=O)O)cn4c3c2SCC4)CC1 [RUFLOXACIN] | > 30 µM | > 30 µM | > 30 µM | > 30 µM |  | > 30 µM | > 30 µM | > 30 µM | > 30 µM | > 30 µM | > 30 µM
16 | CN1c2ccccc2C(NCCCCCCC(=O)O)c2ccc(Cl)cc2S1(=O)=O (configuration not stated) [TIANEPTINE] | > 30 µM | > 30 µM | > 30 µM | > 30 µM |  | > 30 µM | > 30 µM | > 30 µM | > 30 µM | > 30 µM | > 30 µM
17 | COc1cc2c(Nc3ccc(Br)cc3F)ncnc2cc1OCC1CCN(C)CC1 [VANDETANIB] | > 30 µM | 23 µM | 2.1 µM | > 30 µM |  | > 30 µM | > 30 µM | > 30 µM | > 30 µM | 14 µM | > 30 µM
